# Results taken from patent publication US20210290784A1, “POSITRON EMISSION TOMOGRAPHY (PET) RADIOTRACERS FOR IMAGING MACROPHAGE COLONY-STIMULATING FACTOR 1 RECEPTOR (CSF1R) IN NEUROINFLAMMATION” (The Johns Hopkins University, priority 2018, published 2021).
# How the values were obtained:
# CSF1R [1] = molecular target: T1, CSF1R (Mus musculus, UniProt P09581); conditions: i.p.-LPS mice, blocker 1 mg/kg i.p., 5 min before radiotracer
# T1 sequence (P09581 20-977): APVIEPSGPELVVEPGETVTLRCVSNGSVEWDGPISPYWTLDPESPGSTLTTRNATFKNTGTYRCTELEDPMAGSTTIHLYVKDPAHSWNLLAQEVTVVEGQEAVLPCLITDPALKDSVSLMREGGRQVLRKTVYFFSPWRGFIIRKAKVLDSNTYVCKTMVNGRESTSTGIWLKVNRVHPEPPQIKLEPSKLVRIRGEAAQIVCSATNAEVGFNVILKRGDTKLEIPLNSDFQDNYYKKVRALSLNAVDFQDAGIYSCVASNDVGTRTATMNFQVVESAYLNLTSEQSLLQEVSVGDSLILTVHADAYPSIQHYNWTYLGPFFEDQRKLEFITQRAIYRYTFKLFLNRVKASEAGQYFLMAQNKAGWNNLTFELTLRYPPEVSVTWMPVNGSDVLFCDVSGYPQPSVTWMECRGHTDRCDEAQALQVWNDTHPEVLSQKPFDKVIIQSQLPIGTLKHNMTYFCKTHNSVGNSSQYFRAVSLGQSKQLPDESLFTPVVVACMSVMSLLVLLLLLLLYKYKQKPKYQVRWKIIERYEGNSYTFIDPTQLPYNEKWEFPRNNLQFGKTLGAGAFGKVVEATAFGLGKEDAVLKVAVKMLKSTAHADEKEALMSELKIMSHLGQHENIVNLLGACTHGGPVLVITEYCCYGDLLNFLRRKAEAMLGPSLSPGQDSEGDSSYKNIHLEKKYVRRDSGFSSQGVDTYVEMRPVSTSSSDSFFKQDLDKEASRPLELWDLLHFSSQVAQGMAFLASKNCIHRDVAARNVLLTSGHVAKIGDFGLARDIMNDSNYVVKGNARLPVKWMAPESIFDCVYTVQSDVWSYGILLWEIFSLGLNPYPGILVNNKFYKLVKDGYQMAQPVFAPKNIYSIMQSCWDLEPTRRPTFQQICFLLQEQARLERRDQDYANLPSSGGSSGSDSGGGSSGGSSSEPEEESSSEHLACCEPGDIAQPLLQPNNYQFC
# CSF1R [2] = molecular target: CSF1R (Homo sapiens, UniProt P07333); assay: CSF1R competition binding assay, KinomeScan, DiscoverX; design: purchased DiscoverX; conditions: commercial assay
# CSF1R Human RTK Kinase = molecular target: T2, CSF1R Human RTK Kinase (Homo sapiens, UniProt P07333); assay: CSF1R Human RTK Kinase, Enzymatic Radiometric Assay, Eurofins; format: biochemical; conditions: commercial assay
# T2 construct: purchased Eurofins
# microglia = conditions: chronic treatment of mice; cited from earlier work
# TSPO = molecular target: T3, TSPO (Rattus norvegicus, UniProt P16257); conditions: LPS-treated rats; cited from earlier work
# T3 construct: host or cells: LPS-treated rats (cited study)
# Chain of CSF1R (Homo sapiens, UniProt P07333) (P07333 20-972, species assumed): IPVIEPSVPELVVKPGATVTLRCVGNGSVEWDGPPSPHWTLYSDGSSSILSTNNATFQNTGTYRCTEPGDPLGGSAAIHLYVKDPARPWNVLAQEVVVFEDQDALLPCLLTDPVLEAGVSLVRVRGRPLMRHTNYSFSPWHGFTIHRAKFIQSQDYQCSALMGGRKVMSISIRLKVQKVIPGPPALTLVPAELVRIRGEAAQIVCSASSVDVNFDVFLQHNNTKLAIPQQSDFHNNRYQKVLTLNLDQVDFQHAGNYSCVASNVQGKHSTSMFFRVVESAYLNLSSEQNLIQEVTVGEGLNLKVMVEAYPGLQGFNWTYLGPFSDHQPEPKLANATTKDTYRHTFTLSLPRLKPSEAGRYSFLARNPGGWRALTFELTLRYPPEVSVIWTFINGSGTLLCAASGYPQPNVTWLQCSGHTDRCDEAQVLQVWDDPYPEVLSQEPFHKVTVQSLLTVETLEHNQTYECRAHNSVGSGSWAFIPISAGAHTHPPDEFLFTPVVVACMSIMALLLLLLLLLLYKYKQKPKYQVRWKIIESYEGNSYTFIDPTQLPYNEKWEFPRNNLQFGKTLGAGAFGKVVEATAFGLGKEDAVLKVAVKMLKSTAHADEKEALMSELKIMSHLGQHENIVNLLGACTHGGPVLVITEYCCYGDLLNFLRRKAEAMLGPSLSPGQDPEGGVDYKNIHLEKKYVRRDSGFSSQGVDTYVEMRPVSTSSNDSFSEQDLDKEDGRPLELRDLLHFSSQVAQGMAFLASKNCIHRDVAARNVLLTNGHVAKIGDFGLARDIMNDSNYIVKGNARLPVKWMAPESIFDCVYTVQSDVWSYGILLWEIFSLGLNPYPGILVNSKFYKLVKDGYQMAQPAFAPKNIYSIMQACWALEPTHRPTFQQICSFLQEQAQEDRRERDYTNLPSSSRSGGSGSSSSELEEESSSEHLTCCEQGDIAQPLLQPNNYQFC
# T2 sequence (P07333 20-972): as the sequence (P07333 20-972, species assumed) above
smiles,measurement,setting,value
"CN1CCN(c2ccc(NC(=O)c3ccc(C#N)o3)c(N3CCCCC3)c2)CC1 [1a JHU11744, 5-Cyano-N-(4-(4-methylpiperazin-1-yl)-2-(piperidin-1-yl)phenyl)furan-2-carboxamide]",blocking of [11C]CPPC SUVR uptake by CSF1R inhibitor,CSF1R [1],significantly decreased the uptake to the control level
"CN1CCN(c2ccc(NC(=O)c3cc(C#N)co3)c(N3CCCCC3)c2)CC1 [1g JHU11765, 4-Cyano-N-(4-(4-methylpiperazin-1-yl)-2-(piperidin-1-yl)phenyl)furan-2-carboxamide]",Kd,CSF1R [2],> 1000 nM
"CN1CCN(c2ccc(NC(=O)c3coc(C#N)c3)c(N3CCCCC3)c2)CC1 [1h JHU11766, 5-Cyano-N-(4-(4-methylpiperazin-1-yl)-2-(piperidin-1-yl)phenyl)furan-3-carboxamide]",Kd,CSF1R [2],> 1000 nM
"CN1CCN(c2ccc(NC(=O)c3cccc(F)n3)c(N3CCCCC3)c2)CC1 [1i JHU11767, 6-Fluoro-N-(4-(4-methylpiperazin-1-yl)-2-(piperidin-1-yl)phenyl)picolinamide]",Kd,CSF1R [2],30 nM
"N#Cc1ccc(C(=O)Nc2ccc(N3CCN(CCF)CC3)cc2N2CCCCC2)o1 [1k JHU11763, 5-Cyano-N-(4-(4-(2-fluoroethyl)piperazin-1-yl)-2-(piperidin-1-yl)phenyl)furan-2-carboxamide]",IC50,CSF1R Human RTK Kinase,12.9 nM
same,Kd,CSF1R [2],32 nM
"CC1CCN(c2cc(N3CCN(CCF)CC3)ccc2NC(=O)c2cc(C#N)c[nH]2)CC1 [1l JHU11764, 4-Cyano-N-(4-(4-(2-fluoroethyl)piperazin-1-yl)-2-(4-methylpiperidin-1-yl)phenyl)-1H-pyrrole-2-carboxamide]",IC50,CSF1R Human RTK Kinase,3.14 nM
"FC(F)(F)c1ccc(CNc2ccc(Cc3c[nH]c4ncc(Cl)cc34)cn2)cn1 [PLX3397, pexidartinib]",depletion of microglia,microglia,90%
CCC(C)N([11CH3])C(=O)c1cc2ccccc2c(-c2ccccc2Cl)n1 (stereo not drawn) [[^11C]PK11195],BP value,TSPO,0.47
